The source of these data is paper PMC11334105, “Contribution of Noncovalent Recognition and Reactivity to the Optimization of Covalent Inhibitors: A Case Study on KRas^G12C” (ACS Chemical Biology, 2024).

Data set [1] concerns H1792. Briefly: Cell proliferation assay (MTT), KRAS^G12C expressing cell. The note with it: Homo sapiens, NCI-H1792, 72 h, read-out: IC50 anti-proliferative activity.
The subject of data set [2] is MiaPaca2. Described as above. The note with it: Homo sapiens, MIA PaCa-2, 72 h, read-out: IC50 anti-proliferative activity.
In data set [3] the target is T1, KRAS^G12C (Homo sapiens, UniProt P01116, G12C). Description: MANT-GDP nucleotide exchange assay (SOS1, GppNHp). The data set is classed as biochemical. The procedure: The reaction was stopped by adding MgCl2 to a final concentration of 10 mM, then incubated at 20 °C for 30 min. The unbound MANT-GDP was removed using the NAP-5 column equilibrated with nucleotide exchange buffer (40 mM HEPES-NaOH (pH 7.5), 50 mM NaCl, 10 mM MgCl2, 2 mM Dithiothreitol DTT).

The subject of data set [4] is H358. Briefly: Cell proliferation assay (MTT), KRAS^G12C expressing cell. The note with it: Homo sapiens, NCI-H358, 72 h, read-out: IC50 anti-proliferative activity.
The target of data set [5] is KRAS^wt (Homo sapiens, UniProt P01116). Briefly: MANT-GDP nucleotide exchange assay against wild type.
Description: In the experiments, we used the GTP analogue, GppNHp, which cannot be hydrolyzed by Ras.
After the incubation, the MANT-GDP KRAS-inhibitor mixtures were loaded into a black 384-well microplate in the presence or absence of the different inhibitor molecules in various concentrations. The nucleotide exchange reaction was initiated by adding a 100-fold molar excess of GppNHp (catalog no.: G0635, Sigma-Aldrich), a nonhydrolyzable GTP analog, and the SOS1 exchange domain (catalog no.: GE02, Cytoskeleton, Inc.) protein in 0.2 μM final concentration. The change in fluorescence intensity was measured every 30 s in RT for 60 min on an EnvSpire plate reader (PerkinElmer, Inc.). The measured values were fitted to a single exponential function by using GraphPad Prism 10 software. The derived rates were normalized to the RAS-SOS1 minus RAS-only samples from which the IC50 values were calculated from three independent experiments with each inhibitor using GraphPad Prism 10 software.
Data set [6] addresses T1, KRAS^G12C. Description: LC-MS occupancy measurements (KI and kinact determination). The data set is classed as binding. The settings on record: for kobs: 5 μM KRASG12C, duplicated experiments; for experimental ΔG^# (KRAS^G12C): free energy barrier calculated from kinact; for experimental ΔGbind: obtained as RT ln(KI) with KI in M units.
Data set [7] in a line: HPLC-based GSH reactivity and stability assay. The data set is classed as physicochemical. The note with it: for half-life at 250 μM: 5 mM glutathione, PBS pH 7.4, corrected for aqueous degradation, mean ± SD, n = 2, read-out: t1/2 GSH (converted); for experimental ΔG^#(GSH): free energy barrier calculated from t1/2 and GSH^– concentration. The procedure: The cysteine reactivity of the compounds was first assessed in a surrogate kinetic assay.[25],[26] Glutathione (GSH), a cysteine surrogate, was used in a large excess to ensure quasi-first-order reaction kinetics.
The sample was eluted with gradient elution using eluent A (0.1% FA in H2O) and eluent B (0.1% FA in ACN). The column temperature was always kept at 30 °C; the injection volume was 20 μL, the flow rate was set to 1.5 mL/min, and a Reprospher C18 (5 μm, 100 mm × 3 mm) column was used along with the following gradient. […] The AUC (area under the curve) values were determined via the integration of HPLC chromatograms and then corrected with the internal standard. The fragments’ AUC values were subjected to ordinary least-squares (OLS) linear regression, and to compute the important parameters (kinetic rate constant and half-life time), an Excel sheet was applied. The data are expressed as means of duplicate determinations. The kinetic rate constant for the degradation and corrected GSH reactivity were calculated as follows. The reaction half-life for pseudo-first-order reactions (t1/2) is ln 2/k, where k is the reaction rate. In the case of competing reactions (reaction with GSH and degradation), the apparent reaction rate is kapp = kdeg + kGSH. When half-lives are measured experimentally, t1/2(app) = ln 2/(kapp) = ln 2/(kdeg + kGSH). In our case, the corrected kdeg and kapp (regarding blank and GSH-containing samples, respectively) can be calculated by the linear regression of the measured kinetic data points. The corrected kGSH is calculated as kapp – kdeg, and finally, the half-life is determined using the equation t1/2 = ln 2/k.

In data set [8] the target is KRAS^G12C. The settings on record: published value ref 46; cited from earlier work.
Setting [9] is: KRAS^G12C, 60 min incubation with inhibitor, mean ± SD, n = 3, read-out: IC50 inhibition of nucleotide exchange.
The mark [10] stands for this setting: fit of kobs vs concentration, MS occupancy, mean ± SD, n = 2.
Where [11] appears, read: fit of kobs vs concentration, MS occupancy, mean ± SD, n = 2, read-out: KI.
The mark [12] stands for this setting: PBS buffer with 5 mM glutathione (GSH).

Where two headings read alike, the source gives them in different places.

One may read the IC50 as the concentration needed to halve the response being measured. With `C=CC(=O)N1CCN(c2ncnc3cc(-c4c(O)cccc4F)c(Cl)cc23)CC1` [1a, 1-(4-(6-Chloro-7-(2-fluoro-6-hydroxyphenyl)quinazolin-4-yl)piperazin-1-yl)prop-2-en-1-one], the IC50 in data set [1] was 16.2 µM; in data set [2], 1.8 µM; in data set [3] (setting [9]), 0.827 ± 0.137 µM; in data set [4] it was 2.3 µM.
In the case of `C=CC(=O)N1CCN(c2nc(OCC3CCCN3C)nc3cc(-c4c(O)cccc4F)c(Cl)cc23)CC1` (centres unmarked) [1b, 1-(4-(6-Chloro-7-(2-fluoro-6-hydroxyphenyl)-2-((1-methylpyrrolidin-2-yl)methoxy)quinazolin-4-yl)piperazin-1-yl)prop-2-en-1-one], the IC50 is 30.1 µM in data set [1]; 0.53 µM in data set [2]; 0.52 ± 0.108 µM in data set [3] (setting [9]); 177 µM in data set [5]; 1.1 µM in data set [4].
As to `O=C(CCl)N1CCN(c2ncnc3cc(-c4c(O)cccc4F)c(Cl)cc23)CC1` [2a, 2-Chloro-1-{4-[6-chloro-7-(2-fluoro-6-hydroxyphenyl)-quinazolin-4-il]piperazine-1-yl}ethane-1-one], the IC50 came to 2.9 µM in data set [1], 3.1 µM in data set [2], 0.305 ± 0.04 µM in data set [3] (setting [9]) and 2.7 µM in data set [4].
On the same counts, the results for `CN1CCCC1COc1nc(N2CCN(C(=O)CCl)CC2)c2cc(Cl)c(-c3c(O)cccc3F)cc2n1` (centres unmarked) [2b, 2-Chloro-1-(4-(6-chloro-7-(2-fluoro-6-hydroxyphenyl)-2-((1-methylpyrrolidin-2-yl)methoxy)quinazolin-4-yl)piperazin-1-yl)ethan-1-one] are 1.8 µM, 3.2 µM, 0.642 ± 0.115 µM and 1.8 µM.
By kinact/KI is commonly meant the maximal inactivation rate divided by the concentration that gives half of it. A word on the Ki: it is a measure of affinity in units of concentration, obtained from inhibition or displacement. On to `O=C(N1CCN(c2ncnc3cc(-c4c(O)cccc4F)c(Cl)cc23)CC1)n1ccnc1` [3a, (4-(6-Chloro-7-(2-fluoro-6-hydroxyphenyl)quinazolin-4-yl)piperazin-1-yl)(1H-imidazol-1-yl)methanone], for which the IC50 in data set [1] came to 17.9 µM; in data set [2] it was 20.4 µM; in data set [3] (setting [9]), 67.4 ± 11.3 µM; in data set [4], 27.4 µM. Also, the kinact/KI in data set [6] turned out to be 9.8 ± 4.7 M⁻¹ s⁻¹. For the same compound, the kobs in data set [6] (20 μM inhibitor) is 0.00014 ± 0.00003 s⁻¹; in data set [6] (40 μM inhibitor), 0.00021 ± 0.00005 s⁻¹; in data set [6] (80 μM inhibitor) it was 0.00033 ± 0.00004 s⁻¹; in data set [6] (160 μM inhibitor), 0.00033 ± 0.00006 s⁻¹. Moreover, the kinact in data set [6] (setting [10]) was 0.4 ± 0.1 0.001 s^–1. The Ki in data set [6] (setting [11]) came out at 40.9 ± 16.7 µM. For the same compound, the “experimental ΔG^# (KRAS^G12C)” value in data set [6] is listed as 22.0 ± 0.2 kcal/mol. In addition, in data set [6], the “experimental ΔGbind” value is given as “–6.0 ± 0.4 kcal/mol”. In addition, in data set [7] (setting [12]), the half-life at 250 μM is 35 ± 11 h. Also, the “experimental ΔG^#(GSH)” value in data set [7] is listed as 19.6 ± 0.2 kcal/mol.
Regarding `CN1CCCC1COc1nc(N2CCN(C(=O)n3ccnc3)CC2)c2cc(Cl)c(-c3c(O)cccc3F)cc2n1` (centres unmarked) [3b, (4-(6-Chloro-7-(2-fluoro-6-hydroxyphenyl)-2-((1-methylpyrrolidin-2-yl)methoxy)quinazolin-4-yl)piperazin-1-yl)(1H-imidazol-1-yl)methanone], the IC50 is 17.7 µM in data set [1], 8.8 µM in data set [2], 243 ± 52.4 µM in data set [3] (setting [9]) and 9.9 µM in data set [4]. In addition, in data set [6], the kinact/KI is 3.1 ± 0.7 M⁻¹ s⁻¹. The kobs was found to be 0.00005 ± 0.00001 s⁻¹ in data set [6] (20 μM inhibitor), 0.0006 ± 0.00001 s⁻¹ in data set [6] (40 μM inhibitor), 0.00009 ± 0.00001 s⁻¹ in data set [6] (80 μM inhibitor) and 0.00010 ± 0.00001 s⁻¹ in data set [6] (160 μM inhibitor). In addition, the kinact in data set [6] (setting [10]) is reported as 0.13 ± 0.01 0.001 s^–1. In data set [6] (setting [11]), the Ki came out at 42.2 ± 9.9 µM. Further, the “experimental ΔG^# (KRAS^G12C)” value in data set [6] is given as 22.7 ± 0.0 kcal/mol. In addition, in data set [6], the “experimental ΔGbind” value is “–6.0 ± 0.1 kcal/mol”. The half-life at 250 μM in data set [7] (setting [12]) was 40 ± 18 h. Besides, the “experimental ΔG^#(GSH)” value in data set [7] was 19.7 ± 0.3 kcal/mol.
Turning to `O=C(C1CN1)N1CCN(c2ncnc3cc(-c4c(O)cccc4F)c(Cl)cc23)CC1` (centres unmarked) [4a, Aziridin-2-yl(4-(6-chloro-7-(2-fluoro-6-hydroxyphenyl)quinazolin-4-yl)piperazin-1-yl)methanone], the IC50 amounted to 22.6 µM in data set [1], 19.8 µM in data set [2], 198 ± 39 µM in data set [3] and 27.1 µM in data set [4]. Further, the Ki in data set [6] was determined as 22.2 ± 1.8 µM. For the same compound, the kobs in data set [6] (20 μM inhibitor) turned out to be 0.00004 ± 0.00001 s⁻¹; in data set [6] (40 μM inhibitor), 0.0006 ± 0.00001 s⁻¹; in data set [6] (80 μM inhibitor) it was 0.00007 ± 0.00001 s⁻¹; in data set [6] (160 μM inhibitor), 0.00008 ± 0.00001 s⁻¹. Besides, the “experimental ΔG^# (KRAS^G12C)” value in data set [6] was 22.9 ± 0.0 kcal/mol. Moreover, the “experimental ΔGbind” value in data set [6] is listed as “–6.3 ± 0.1 kcal/mol”. For the same compound, the half-life at 250 μM in data set [7] (buffer) was more than 72 h. For the same compound, the “experimental ΔG^#(GSH)” value in data set [7] is more than 20.1 kcal/mol.
Turning to `CN1CCCC1COc1nc(N2CCN(C(=O)C3CN3)CC2)c2cc(Cl)c(-c3c(O)cccc3F)cc2n1` (centres unmarked) [4b, Aziridin-2-yl(4-(6-chloro-7-(2-fluoro-6-hydroxyphenyl)-2-((1-methylpyrrolidin-2-yl)methoxy)quinazolin-4-yl)piperazin-1-yl)methanone], the IC50 in data set [1] was found to be 30.8 µM; in data set [2] it was 48.2 µM; in data set [3] it was 84.4 ± 18.9 µM; in data set [4] it was 90 µM. This compound displayed a Ki in data set [6] of 112 ± 30.1 µM. The kobs in data set [6] (20 μM inhibitor) was 0.00029 ± 0.00018 s⁻¹; in data set [6] (40 μM inhibitor) it was 0.00044 ± 0.00004 s⁻¹; in data set [6] (80 μM inhibitor) it was 0.00072 ± 0.00018 s⁻¹; in data set [6] (160 μM inhibitor) it was 0.00104 ± 0.00002 s⁻¹. Besides, the “experimental ΔG^# (KRAS^G12C)” value in data set [6] was 21.2 ± 0.1 kcal/mol. For the same compound, in data set [6], the “experimental ΔGbind” value is “–5.4 ± 0.2 kcal/mol”. In data set [7] (buffer), the half-life at 250 μM is more than 72 h. Moreover, the “experimental ΔG^#(GSH)” value in data set [7] is more than 20.1 kcal/mol.
Consider `C=CC(=O)N1CCN(c2ncnc3c(F)c(-c4c(O)cccc4F)c(Cl)cc23)CC1` [ARS-1620, reference compound], for which the IC50 worked out at 10.2 µM in data set [1], 0.14 µM in data set [2] and 0.31 µM in data set [4].
With `C=CC(=O)N1CCN(c2nc(OC[C@@H]3CCCN3C)nc3c(F)c(-c4nc(N)cc(C)c4C(F)(F)F)c(Cl)cc23)[C@@H](C)C1` [Divarasib], in data set [8], the kinact/KI is given as 710,000 M^–1 s^–1.
